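Dose response: 5 concentrations. Exposure: 48 h. Format: 96-well plates. Endpoint: linear interpolation; highest concentration if not reached. GI50 = concentration required for 50% inhibition of growth.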 Calls of active or inactive are those of the source. Rule as the data show it: active = GI50 up to about 1.1 µM and inactive = higher. A value given as a limit tells only on which side of the number the result lay.

Assay in all cases: growth of human tumour cells (NCI), 48 h
The test system of test [1] is ACHN.
In test [2] the test system is CAKI-1.
Test [3] relates to COLO 205.
Test [4] relates to EKVX.
Test [5] concerns HCC 2998.
For test [6], the system named is HCT-15.
Test [7] concerns HOP-62.
Test [8] deals with HOP-92.
The subject of test [9] is LOX IMVI.
For test [10], the system named is MOLT-4.
Test [11] concerns OVCAR-3.
Test [12] deals with SF-268.
Test [13] concerns SF-539.
Test [14] relates to SK-OV-3.
Test [15] concerns SN12C.
The test system of test [16] is SNB-19.
The test system of test [17] is T47D.
For test [18], the system named is UACC-257.
Test [19] relates to K562.
The subject of test [20] is RXF 393.

On to `Nc1nc(N)c2c(n1)CCC(S(=O)(=O)c1ccc3ccccc3c1)C2` (stereo not given), for which the GI50 in test [1] was 3.85 µM (inactive); in [2] it was 6 µM (inactive); in test [3] it was 8.38 µM (inactive); in test [4] it was 31.8 µM (inactive); in [5] it was 13.6 µM (inactive); in [6], 2.38 µM. Further, the GI50 in test [7] is 9.51 µM (inactive); in test [8] it was 9.1 µM (inactive); in test [9], 0.706 µM (active); in test [10], 2 µM (inactive); in test [11] it was 10.9 µM (inactive); in test [12] it was 11 µM (inactive). Also, the GI50 in [13] is 3.8 µM (inactive); in [14], 33.3 µM (inactive); in [15], 7 µM (inactive); in test [16] it was 3.61 µM (inactive); in [17] it was 14.5 µM (inactive); in test [18], 12.5 µM (inactive).

Regarding `O=c1c(-c2ccc3c(c2)OCO3)coc2c3c(ccc12)OCO3`, the GI50 in [1] was 18.5 µM (inactive); in [2], 63.7 µM (inactive); in test [3], > 100 µM (inactive); in test [4] it was 38 µM (inactive); in [5], 58.1 µM (inactive); in test [6], 28.4 µM. In addition, the GI50 in test [7] was 20.1 µM (inactive); in test [8], 18 µM (inactive); in test [19], > 100 µM (inactive); in [9] it was 45.2 µM (inactive); in [10], > 100 µM (inactive); in test [11], 28.5 µM (inactive). For the same compound, the GI50 was 19.1 µM (inactive) in [12]; 20 µM (inactive) in [13]; 18.1 µM (inactive) in test [14]; 41.8 µM (inactive) in test [15]; 21.4 µM (inactive) in test [16]; 37.8 µM (inactive) in test [17]. Besides, the GI50 in test [18] is 53.1 µM (inactive).

On to `C=C[C@@]1(C)CC(=O)[C@]2(O)[C@@]3(C)[C@@H](OC(C)=O)CCC(C)(C)[C@@H]3[C@H](O)[C@H](OC(C)=O)[C@@]2(C)O1`, for which the GI50 is > 100 µM (inactive) in [1]; > 100 µM (inactive) in test [2]; > 100 µM (inactive) in test [4]; > 100 µM (inactive) in test [5]; more than 100 µM in [6]; > 100 µM (inactive) in test [7]. Further, the GI50 in test [8], in test [19], in test [9], in test [10], in test [11] and in test [13] was > 100 µM (inactive) throughout. For the same compound, the GI50 in test [14], in test [15], in test [16], in test [17] and in test [18] was > 100 µM (inactive) each time.

Take `C[C@@H]1CC(=O)[C@@]2(C)[C@](O)(CCC3O[C@]32C)[C@@]12CC(c1ccoc1)OC2=O` (stereo not given in full): the GI50 in test [1] was 70.6 µM (inactive); in [2] it was 91 µM (inactive); in test [3], 65 µM (inactive); in [4], > 100 µM (inactive); in test [5] it was > 100 µM (inactive); in test [6], 37.8 µM. In addition, the GI50 in [19] was 39.1 µM (inactive); in test [9] it was 35.2 µM (inactive); in [10], 23 µM (inactive); in test [11] it was > 100 µM (inactive); in [20], 31.8 µM (inactive); in test [13], > 100 µM (inactive). Besides, the GI50 in test [14], in test [16], in test [17] and in test [18] was > 100 µM (inactive) each time.

(Values after ChEMBL document CHEMBL1201862, “PubChem BioAssay data set” (2004).)
